In paper PMC7531601, “Exploiting Lactoferricin (17–30) as a Potential Antimicrobial and Antibiofilm Candidate Against Multi-Drug-Resistant Enteroaggregative Escherichia coli” (Frontiers in Microbiology, 2020):
Where two headings read alike, the source gives them in different places. Ends that are not written are not given here.

Test system: MDR-EAEC isolates
Conditions: for MIC / MBC: 37°C
Description: Initially, characterization of Lfcin (17–30) was performed by determining its minimum inhibitory concentration (MIC), minimum bactericidal concentration (MBC), in vitro stability assays (high-end temperatures, the physiological concentration of cationic salts and proteases), and in vitro safety assays (sheep erythrocyte hemolysis and secondary cell line cytotoxicity) (Supplementary Files S1–S3). The membrane permeabilization effect of Lfcin (17–30) was assessed by flow cytometry, whereas outer and inner membrane permeability of MDR-EAEC strains treated with 1 × and 2 × MIC levels of Lfcin (17–30) was carried out based on the nitrocefin activity as well as the release of cytoplasmic β-galactosidase activity, respectively (Supplementary File S4). Further, Lfcin (17–30) was evaluated for its antibacterial activity against beneficial lactobacilli (L. acidophilus MTCC 10307 and L. rhamnosus MTCC 1408) (Supplementary File S5).
To explore the utility of Lfcin (17-30) as a therapeutic molecule, in vitro stability was evaluated by exposing it to high-end temperatures, proteases as well as the physiological concentration of salts. In brief, the effect of temperature was investigated by incubating Lfcin (17-30) at 70 °C and 90 °C for 5, 15, and 30 min followed by measuring the MIC value. The effect of proteases (trypsin and proteinase-K) on the antimicrobial activity of Lfcin (17-30) [Protease: AMP- 1:100 (w/w)] was investigated by incubating with the respective protease at 37 °C for 30 sec, 2, 5, 15 and 30 min, followed by inactivating the enzyme at 90 °C for 10 min and measuring the MIC value. The stability of Lfcin (17-30) in the presence of high salt concentrations (150 mM and 2 mM MgCl2) was estimated in regular MH broth. Appropriate controls were included in each experiment.

[1] = proteinase-K 1:100 (w/w), 2 min, MDR 3
[2] = proteinase-K 1:100 (w/w), 5 min, MDR 1
[3] = proteinase-K 1:100 (w/w), 5 min, MDR 2
[4] = proteinase-K 1:100 (w/w), 5 min, MDR 3
[5] = proteinase-K 1:100 (w/w), 15 min, MDR 1
[6] = proteinase-K 1:100 (w/w), 15 min, MDR 2
[7] = proteinase-K 1:100 (w/w), 15 min, MDR 3
[8] = proteinase-K 1:100 (w/w), 30 min, MDR 1
[9] = proteinase-K 1:100 (w/w), 30 min, MDR 2
[10] = proteinase-K 1:100 (w/w), 30 min, MDR 3
[11] = trypsin 1:100 (w/w), 2 min, MDR 1
[12] = trypsin 1:100 (w/w), 2 min, MDR 2
[13] = trypsin 1:100 (w/w), 2 min, MDR 3
[14] = trypsin 1:100 (w/w), 5 min, MDR 1
[15] = trypsin 1:100 (w/w), 5 min, MDR 2
[16] = trypsin 1:100 (w/w), 5 min, MDR 3
[17] = trypsin 1:100 (w/w), 15 min, MDR 1
[18] = trypsin 1:100 (w/w), 15 min, MDR 2
[19] = trypsin 1:100 (w/w), 15 min, MDR 3
[20] = trypsin 1:100 (w/w), 30 min, MDR 1
[21] = trypsin 1:100 (w/w), 30 min, MDR 2
[22] = trypsin 1:100 (w/w), 30 min, MDR 3

## FKCRRWQWRMKKLG [Lfcin (17–30)]
proteinase-K 1:100 (w/w), 2 min, MDR 2
  MIC: 8.0 µg/mL
[1]
  MBC: 4.0 µg/mL
  MIC: 4.0 µg/mL
[2]
  MBC: 16.0 µg/mL
  MIC: 8.0 µg/mL
[3]
  MBC: 32.0 µg/mL
  MIC: 8.0 µg/mL
[4]
  MBC: 4.0 µg/mL
  MIC: 4.0 µg/mL
[5]
  MBC: 16.0 µg/mL
  MIC: 8.0 µg/mL
[6]
  MBC: 32.0 µg/mL
  MIC: 8.0 µg/mL
[7]
  MBC: 4.0 µg/mL
  MIC: 4.0 µg/mL
[8]
  MBC: 8.0 µg/mL
  MIC: 8.0 µg/mL
[9]
  MBC: 16.0 µg/mL
  MIC: 8.0 µg/mL
[10]
  MBC: 4.0 µg/mL
  MIC: 2.0 µg/mL
proteinase-K, protease:AMP 1:100 (w/w), 0.5 min, enzyme inactivated 90°C 10 min, MDR 1
  MIC: 8.0 µg/mL
proteinase-K, protease:AMP 1:100 (w/w), 0.5 min, enzyme inactivated 90°C 10 min, MDR 2
  MIC: 8.0 µg/mL
proteinase-K, protease:AMP 1:100 (w/w), 0.5 min, enzyme inactivated 90°C 10 min, MDR 3
  MIC: 4.0 µg/mL
proteinase-K, judged by MIC and MBC
  stability to protease (proteinase-K): stable
Trypsin 1:100 (w/w), 0.5 min, MDR 1
  MBC: 16.0 µg/mL
Trypsin 1:100 (w/w), 0.5 min, MDR 2
  MBC: 16.0 µg/mL
Trypsin 1:100 (w/w), 0.5 min, MDR 3
  MBC: 16.0 µg/mL
[11]
  MBC: 16.0 µg/mL
  MIC: 16.0 µg/mL
[12]
  MBC: 16.0 µg/mL
  MIC: 16.0 µg/mL
[13]
  MBC: 16.0 µg/mL
  MIC: 16.0 µg/mL
[14]
  MBC: 16.0 µg/mL
  MIC: 16.0 µg/mL
[15]
  MBC: 16.0 µg/mL
  MIC: 16.0 µg/mL
[16]
  MBC: 16.0 µg/mL
  MIC: 16.0 µg/mL
[17]
  MBC: 16.0 µg/mL
  MIC: 16.0 µg/mL
[18]
  MBC: 16.0 µg/mL
  MIC: 16.0 µg/mL
[19]
  MBC: 32.0 µg/mL
  MIC: 16.0 µg/mL
[20]
  MBC: 16.0 µg/mL
  MIC: 16.0 µg/mL
[21]
  MBC: 16.0 µg/mL
  MIC: 16.0 µg/mL
[22]
  MBC: 32.0 µg/mL
  MIC: 16.0 µg/mL
trypsin, protease:AMP 1:100 (w/w), 0.5 min, enzyme inactivated 90°C 10 min, MDR 1
  MIC: 16.0 µg/mL
trypsin, protease:AMP 1:100 (w/w), 0.5 min, enzyme inactivated 90°C 10 min, MDR 2
  MIC: 16.0 µg/mL
trypsin, protease:AMP 1:100 (w/w), 0.5 min, enzyme inactivated 90°C 10 min, MDR 3
  MIC: 16.0 µg/mL
trypsin, judged by MIC and MBC
  stability to protease (trypsin): stable
